Data reported in patent US11173151B2, “Substituted triazole derivatives and uses thereof” (BAYER AKTIENGESELLSCHAFT, priority 2017, dated 2021).

Assays:
human V1a receptor = molecular target: T1, human V1a receptor (Homo sapiens, UniProt P37288); assay: Cellular in vitro assay for determining vasopressin receptor activity, V1a receptor cell line (CHO, aequorin luminescence); type: cell-based; conditions: for IC50: CHO cell line transfected with human V1a receptor, [Arg]-vasopressin at EC50 concentration, read-out: IC50 hV1a; for ratio IC50 hV2/hV1a: selectivity ratio IC50 hV2 / IC50 hV1a
T1 construct: expressed in transfected cells; host or cells: CHO K1 (ATCC), also stably transfected with a modified aequorin
T1 sequence (P37288 whole entry): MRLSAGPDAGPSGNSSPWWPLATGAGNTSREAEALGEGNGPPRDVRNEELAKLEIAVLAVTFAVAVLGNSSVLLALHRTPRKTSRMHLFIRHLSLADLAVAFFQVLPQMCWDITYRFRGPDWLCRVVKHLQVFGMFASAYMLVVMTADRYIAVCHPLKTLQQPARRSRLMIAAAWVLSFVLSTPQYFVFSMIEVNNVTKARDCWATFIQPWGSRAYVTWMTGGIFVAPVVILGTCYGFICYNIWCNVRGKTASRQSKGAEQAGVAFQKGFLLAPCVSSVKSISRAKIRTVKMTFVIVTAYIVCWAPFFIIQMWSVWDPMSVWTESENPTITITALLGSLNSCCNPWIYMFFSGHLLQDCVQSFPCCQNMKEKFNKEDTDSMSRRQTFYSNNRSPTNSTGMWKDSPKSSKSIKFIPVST
How it was run: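 IC50 from inhibition of [Arg]-vasopressin (EC50 concentration)-evoked aequorin luminescence in CHO K1 cells, with 10-min compound pretreatment.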

human V2 receptor = molecular target: T2, human V2 receptor (Homo sapiens, UniProt P30518); assay: Cellular in vitro assay for determining vasopressin receptor activity, V2 receptor cell line (CHO, CRE-luciferase); type: cell-based; conditions: CHO cell line transfected with human V2 receptor; [Arg8]-vasopressin at EC50 concentration, 3 hours; read-out: IC50 hV2
T2 construct: expressed in transfected cells; host or cells: CHO K1 (ATCC) expressing firefly luciferase under a CRE-responsive promoter
T2 sequence (P30518 whole entry): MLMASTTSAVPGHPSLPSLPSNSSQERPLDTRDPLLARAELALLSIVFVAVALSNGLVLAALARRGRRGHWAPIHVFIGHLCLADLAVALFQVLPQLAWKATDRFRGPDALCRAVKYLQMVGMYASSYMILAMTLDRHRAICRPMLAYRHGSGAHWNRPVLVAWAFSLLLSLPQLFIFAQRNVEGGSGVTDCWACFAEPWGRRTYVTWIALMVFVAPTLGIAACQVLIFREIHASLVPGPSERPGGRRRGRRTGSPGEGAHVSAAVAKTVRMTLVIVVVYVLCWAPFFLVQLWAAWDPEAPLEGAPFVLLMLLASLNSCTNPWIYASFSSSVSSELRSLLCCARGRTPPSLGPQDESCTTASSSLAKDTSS

IC50 (human V1a receptor)	ratio IC50 hV2/hV1a (human V1a receptor)	IC50 (human V2 receptor)	Structure (SMILES)
31.5 nM	22.2	700 nM	Cc1nc(C(=O)Nc2ncccc2-n2cnc(Cn3nc(-c4ccc(Cl)cc4)n(C[C@H](O)C(F)(F)F)c3=O)n2)no1 [Example 108]
115 nM	58.7	6750 nM	CN1CCC(C(=O)Nc2ncccc2-n2cnc(Cn3nc(-c4ccc(Cl)cc4)n(C[C@H](O)C(F)(F)F)c3=O)n2)CC1 [Example 109]
6.3 nM	83.3	525 nM	CCn1ccc(C(=O)Nc2ncccc2-n2cnc(Cn3nc(-c4ccc(Cl)cc4)n(C[C@H](O)C(F)(F)F)c3=O)n2)n1 [Example 110]
4.7 nM	276.6	1300 nM	CCn1nccc1C(=O)Nc1ncccc1-n1cnc(Cn2nc(-c3ccc(Cl)cc3)n(C[C@H](O)C(F)(F)F)c2=O)n1 [Example 111]
170 nM	388.2	66000 nM	CCn1cc(C(=O)Nc2ncccc2-n2cnc(Cn3nc(-c4ccc(Cl)cc4)n(C[C@H](O)C(F)(F)F)c3=O)n2)cn1 [Example 112]
91 nM	9.2	835 nM	CC1(C(=O)Nc2ncccc2-n2cnc(Cn3nc(-c4ccc(Cl)cc4)n(C[C@H](O)C(F)(F)F)c3=O)n2)CCCCC1 [Example 113]
19 nM	12.6	240 nM	CC1CC1C(=O)Nc1ncccc1-n1cnc(Cn2nc(-c3ccc(Cl)cc3)n(C[C@H](O)C(F)(F)F)c2=O)n1 (stereo partly drawn) [Example 114]
31 nM	15.8	490 nM	O=C(Nc1ncccc1-n1cnc(Cn2nc(-c3ccc(Cl)cc3)n(C[C@H](O)C(F)(F)F)c2=O)n1)C1CCC1 [Example 115]
78 nM	14.7	1150 nM	O=C(Nc1ncccc1-n1cnc(Cn2nc(-c3ccc(Cl)cc3)n(C[C@H](O)C(F)(F)F)c2=O)n1)c1ccccc1F [Example 116]
65.5 nM	16.0	1050 nM	CC(C)(C)C(=O)Nc1ncccc1-n1cnc(Cn2nc(-c3ccc(Cl)cc3)n(C[C@H](O)C(F)(F)F)c2=O)n1 [Example 117]
140 nM	8.2	1150 nM	CC1(C(=O)Nc2ncccc2-n2cnc(Cn3nc(-c4ccc(Cl)cc4)n(C[C@H](O)C(F)(F)F)c3=O)n2)COC1 [Example 118]
35 nM	7.7	270 nM	CC[C@H](C)C(=O)Nc1ncccc1-n1cnc(Cn2nc(-c3ccc(Cl)cc3)n(C[C@H](O)C(F)(F)F)c2=O)n1 [Example 119]
27 nM	15.7	425 nM	CCC(C)(O)C(=O)Nc1ncccc1-n1cnc(Cn2nc(-c3ccc(Cl)cc3)n(C[C@H](O)C(F)(F)F)c2=O)n1 (stereo partly drawn) [Example 120]
52 nM	28.8	1500 nM	O=C(Nc1ncccc1-n1cnc(Cn2nc(-c3ccc(Cl)cc3)n(C[C@H](O)C(F)(F)F)c2=O)n1)c1ccc(F)cc1 [Example 121]
120 nM	13.8	1650 nM	Cc1ccccc1C(=O)Nc1ncccc1-n1cnc(Cn2nc(-c3ccc(Cl)cc3)n(C[C@H](O)C(F)(F)F)c2=O)n1 [Example 122]
105 nM	21.9	2300 nM	Cc1ccc(C(=O)Nc2ncccc2-n2cnc(Cn3nc(-c4ccc(Cl)cc4)n(C[C@H](O)C(F)(F)F)c3=O)n2)cc1 [Example 123]
315 nM	12.1	3800 nM	Cc1n[nH]c(C)c1C(=O)Nc1ncccc1-n1cnc(Cn2nc(-c3ccc(Cl)cc3)n(C[C@H](O)C(F)(F)F)c2=O)n1 [Example 124]
29.5 nM	12.2	360 nM	NC(=O)C1(C(=O)Nc2ncccc2-n2cnc(Cn3nc(-c4ccc(Cl)cc4)n(C[C@H](O)C(F)(F)F)c3=O)n2)CC1 [Example 125]
36 nM	6.9	250 nM	CC[C@@H](C)C(=O)Nc1ncccc1-n1cnc(Cn2nc(-c3ccc(Cl)cc3)n(C[C@H](O)C(F)(F)F)c2=O)n1 [Example 126]
160 nM	6.6	1050 nM	Cc1ccn(CC(=O)Nc2ncccc2-n2cnc(Cn3nc(-c4ccc(Cl)cc4)n(C[C@H](O)C(F)(F)F)c3=O)n2)n1 [Example 127]
13.5 nM	111.1	1500 nM	Cc1nnsc1C(=O)Nc1ncccc1-n1cnc(Cn2nc(-c3ccc(Cl)cc3)n(C[C@H](O)C(F)(F)F)c2=O)n1 [Example 128]
670 nM	5.4	3650 nM	Cc1cc(C(=O)Nc2ncccc2-n2cnc(Cn3nc(-c4ccc(Cl)cc4)n(C[C@H](O)C(F)(F)F)c3=O)n2)nn1C [Example 129]

IC50 (human V1a receptor)	ratio IC50 hV2/hV1a (human V1a receptor)	IC50 (human V2 receptor)	Structure (SMILES)
189 nM	23.9	4500 nM	Cc1[nH]ncc1C(=O)Nc1ncccc1-n1cnc(Cn2nc(-c3ccc(Cl)cc3)n(C[C@H](O)C(F)(F)F)c2=O)n1 [Example 130]
12.5 nM	156.0	1950 nM	CC(C(=O)Nc1ncccc1-n1cnc(Cn2nc(-c3ccc(Cl)cc3)n(C[C@H](O)C(F)(F)F)c2=O)n1)n1ccnc1 (stereo partly drawn) [Example 131]
45.5 nM	113.2	5150 nM	Cn1cncc1C(=O)Nc1ncccc1-n1cnc(Cn2nc(-c3ccc(Cl)cc3)n(C[C@H](O)C(F)(F)F)c2=O)n1 [Example 132]
4.9 nM	295.9	1450 nM	Cc1nonc1C(=O)Nc1ncccc1-n1cnc(Cn2nc(-c3ccc(Cl)cc3)n(C[C@H](O)C(F)(F)F)c2=O)n1 [Example 133]
117 nM	10.7	1250 nM	O=C(Nc1ncccc1-n1cnc(Cn2nc(-c3ccc(Cl)cc3)n(C[C@H](O)C(F)(F)F)c2=O)n1)C1CCOCC1 [Example 134]
66.5 nM	14.0	930 nM	Cc1cc(CC(=O)Nc2ncccc2-n2cnc(Cn3nc(-c4ccc(Cl)cc4)n(C[C@H](O)C(F)(F)F)c3=O)n2)on1 [Example 135]
23.5 nM	14.5	340 nM	O=C(CC1CCC1)Nc1ncccc1-n1cnc(Cn2nc(-c3ccc(Cl)cc3)n(C[C@H](O)C(F)(F)F)c2=O)n1 [Example 136]
146 nM	9.2	1350 nM	COC(C)(C)C(=O)Nc1ncccc1-n1cnc(Cn2nc(-c3ccc(Cl)cc3)n(C[C@H](O)C(F)(F)F)c2=O)n1 [Example 137]
38.5 nM	61.0	2350 nM	Cc1nonc1CC(=O)Nc1ncccc1-n1cnc(Cn2nc(-c3ccc(Cl)cc3)n(C[C@H](O)C(F)(F)F)c2=O)n1 [Example 138]
20.5 nM	22.7	465 nM	CCc1cc(C(=O)Nc2ncccc2-n2cnc(Cn3nc(-c4ccc(Cl)cc4)n(C[C@H](O)C(F)(F)F)c3=O)n2)no1 [Example 139]
33.5 nM	30.0	1010 nM	CCc1cc(C(=O)Nc2ncccc2-n2cnc(Cn3nc(-c4ccc(Cl)cc4)n(C[C@H](O)C(F)(F)F)c3=O)n2)on1 [Example 140]
32 nM	33.3	1060 nM	O=C(CC1CCCO1)Nc1ncccc1-n1cnc(Cn2nc(-c3ccc(Cl)cc3)n(C[C@H](O)C(F)(F)F)c2=O)n1 (stereo partly drawn) [Example 141]
100 nM	24.0	2400 nM	CC1=NOC(C)(C(=O)Nc2ncccc2-n2cnc(Cn3nc(-c4ccc(Cl)cc4)n(C[C@H](O)C(F)(F)F)c3=O)n2)C1 (stereo partly drawn) [Example 142]
15 nM	74.7	1120 nM	O=C(Nc1ncccc1-n1cnc(Cn2nc(-c3ccc(Cl)cc3)n(C[C@H](O)C(F)(F)F)c2=O)n1)c1ccncn1 [Example 143]
185 nM	10.3	1900 nM	C=CC(C)C(=O)Nc1ncccc1-n1cnc(Cn2nc(-c3ccc(Cl)cc3)n(C[C@H](O)C(F)(F)F)c2=O)n1 (stereo partly drawn) [Example 144]
125 nM	8.1	1010 nM	CC(C)(O)C(=O)Nc1ncccc1-n1cnc(Cn2nc(-c3ccc(Cl)cc3)n(C[C@H](O)C(F)(F)F)c2=O)n1 [Example 145]
56 nM	9.9	555 nM	CCCC(=O)Nc1ncccc1-n1cnc(Cn2nc(-c3ccc(Cl)cc3)n(C[C@H](O)C(F)(F)F)c2=O)n1 [Example 146]
305 nM	3.1	940 nM	CCC(=O)Nc1ncccc1-n1cnc(Cn2nc(-c3ccc(Cl)cc3)n(C[C@H](O)C(F)(F)F)c2=O)n1 [Example 147]
19 nM	13.4	255 nM	CC(C)CC(=O)Nc1ncccc1-n1cnc(Cn2nc(-c3ccc(Cl)cc3)n(C[C@H](O)C(F)(F)F)c2=O)n1 [Example 148]
12.4 nM	153.2	1900 nM	CSCC(=O)Nc1ncccc1-n1cnc(Cn2nc(-c3ccc(Cl)cc3)n(C[C@H](O)C(F)(F)F)c2=O)n1 [Example 149]
54.5 nM	44.0	2400 nM	O=C(CC1CCCC1)Nc1ncccc1-n1cnc(Cn2nc(-c3ccc(Cl)cc3)n(C[C@H](O)C(F)(F)F)c2=O)n1 [Example 150]
98 nM	6.8	665 nM	CC(C)C(=O)Nc1ncccc1-n1cnc(Cn2nc(-c3ccc(Cl)cc3)n(C[C@H](O)C(F)(F)F)c2=O)n1 [Example 151]
